Assay [1] deals with Ba/F3-KIF5B-RET-V804L. The experiment in a line: Cell proliferation (Celltiter-Glo), Ba/F3-KIF5B-RET-V804L. In kind it is cell-based. The following applies: anti-proliferative, read-out: IC50 (nM, mean ± SD). The method, then:
(§1) Ba/F3-KIF5B-RET, Ba/F3-CCDC6-RET, Ba/F3-KIF5B-RET-V804L, Ba/F3-KIF5B-RET-V804M, Ba/F3-KIF5B-RET-G810R, and Ba/F3-KIF5B-RET-G810S cells were provided by Kyinno Biotechnology Co., Ltd. The cells were cultured in RPMI 1640 (Biological Industries, Israel) supplemented with 10% fetal bovine serum (Biological Industries, Israel) and 1% Penicillin/Streptomycin solution (Corning, United States). They were incubated at 37 °C in a humidified atmosphere containing 5% CO2, and cell proliferation was evaluated using the Celltiter-Glo luminescent cell viability assay.
A general note: In ATP-based viability assays light output follows the ATP content of the culture.

The test system of assay [2] is Ba/F3-KIF5B-RET-V804M. Kind of assay: Cell proliferation (Celltiter-Glo), Ba/F3-KIF5B-RET-V804M. It counts as cell-based. As to conditions: anti-proliferative, read-out: IC50 (nM, mean ± SD). The method, then: as §1
Assay [3] concerns Ba/F3-KIF5B-RET tumor. Kind of assay: Ba/F3-KIF5B-RET xenograft mouse model. As to conditions: 3 mg/kg p.o. BID, B-NDG mice. In kind it is in vivo.
Assay [4] has as its system Ba/F3-KIF5B-RET. The experiment in a line: Cell proliferation (Celltiter-Glo), Ba/F3-KIF5B-RET. In kind it is cell-based. As to conditions: anti-proliferative, read-out: IC50 (nM, mean ± SD). The method, then:
as §1

The test system of assay [5] is Ba/F3-KIF5B-RET-G810S. Kind of assay: Cell proliferation (Celltiter-Glo), Ba/F3-KIF5B-RET-G810S. The following applies: anti-proliferative, read-out: IC50 (nM, mean ± SD). It counts as cell-based. On the procedure: as §1
For assay [6], the system named is Ba/F3-KIF5B-RET-V804L tumor. The experiment in a line: Ba/F3-KIF5B-RET-V804L xenograft mouse model. In kind it is in vivo. The following applies: 3 mg/kg p.o. BID, NPSG mice.
For assay [7], the system named is Ba/F3-KIF5B-RET-G810S tumor. Kind of assay: Ba/F3-KIF5B-RET-G810S xenograft mouse model. In kind it is in vivo. The following applies: 10 mg/kg p.o. BID, NOD SCID mice.
Assay [8] deals with Ba/F3-KIF5B-RET-G810R tumor. The experiment in a line: Ba/F3-KIF5B-RET-G810R xenograft mouse model. The following applies: 10 mg/kg p.o. BID days 0–16, NOD SCID mice.
The subject of assay [9] is Ba/F3-CCDC6-RET. The experiment in a line: Cell proliferation (Celltiter-Glo), Ba/F3-CCDC6-RET. As to conditions: BaF3/CCDC6-RET, anti-proliferative, read-out: IC50 (nM, mean ± SD). In kind it is cell-based. On the procedure:
as §1

Assay [10] deals with Ba/F3-KIF5B-RET-G810R. Kind of assay: Cell proliferation (Celltiter-Glo), Ba/F3-KIF5B-RET-G810R. It counts as cell-based. As to conditions: anti-proliferative, read-out: IC50 (nM, mean ± SD). The method, then: as §1

By IC50 is commonly meant the concentration that gives 50% inhibition. The TGI is how far tumour growth fell short of that in controls. Read a high TGI as a stronger effect on the tumour. Regarding `COc1ccc(CN2C3CC2CN(c2ccc(-c4cc(OCC(C)(C)O)cn5ncc(C#N)c45)cn2)C3)cn1` [Selpercatinib], the IC50 in [1] is 16.2 ± 3.22 nM; in [2] it was 65.3 ± 20.7 nM; in assay [4] it was 11.5 ± 4.31 nM; in [5] it was 125 ± 19.7 nM; in assay [9] it was 70.3 ± 0.91 nM; in [10] it was 734 ± 56.1 nM. Also, in assay [3], the “tumor growth inhibition (TGI)” value worked out at 57.06%. Besides, the TGI is given as 79.48% in assay [6], 82.15% in [7] and 35.37% in [8].
